In patent US20240228558A9, “PEPTIDES AND METHODS FOR THE TREATMENT OF NEUROMYELITIS OPTICA” (IMCYSE SA, priority 2021, published 2024):

Legend:
[1] = molecular target: T1, soluble HLA-DRB1*03:01 (DR3) human MHC II protein (Homo sapiens, UniProt P01903+P01911, A100K/A102G/A103R/A169T/F55Y/I96L/K41T/L162R/M171V/P40S/Q125H/Q178H/Q39Y/R42S/S66N/T106N/T262R/W38E/Y61H); experiment: Soluble phase competition binding assay to MHCII with biotin-labelled control peptide; conditions: competition with biotin-labelled high affinity control peptide, 18h, triplicates (FIGS. 2A-2E)
T1 construct: purchased Benaroya Research Institute, Seattle, US
Description: To test the binding of the immunogenic peptides of table 1 to MHCII molecules, a soluble phase competition assay is performed. The increasing concentrations of the peptides compete with biotin-labelled control peptide (high affinity binder of the corresponding MHCII molecule, Eurogentec, Seraing, Belgium) for binding to the soluble HLA-DRB1*03:01 (also named DR3) human MHC II protein (purchased from the Benaroya Research Institute, Seattle, US). As binding approaches its equilibrium (18h), biotin-labelled peptide/MHC II complexes are captured, separated from unbound reagents, and quantitatively detected by time-resolved fluorescence (Eu^3+ streptavidin, Perkin Elmer, Brussels, Belgium). Since the biotinylated control peptide is responsible for the fluorescence signal (Eu^3+ streptavidin/biotin interaction), the decrease in fluorescence intensity reflects the binding of tested peptides. Data are processed and plotted to ascertain dose-dependent binding properties of the peptides. All the tests are performed in triplicates.

[2] = system: peptide-specific CD4+ T cell lines of NMO patients; experiment: Flow cytometry of TCR induced surface activation marker CD154 after overnight co-culture with autologous LCL; format: cell-based, human
Description: (§1) PBMCs are isolated from blood samples of patients with NMO on Lymphoprep density gradients. CD14+ monocytes are isolated from these PBMCs by performing positive immunomagnetic separation with CD14 microbeads (Miltenyi Biotec, 130-050-201) according to the supplier recommendations. CD14+ monocytes are differentiated for six days and maturated to generate autologous dendritic cells (mDC). CD19+ B cells are isolated from the CD14− PBMCs fraction by performing positive immunomagnetic separation with CD19 microbeads (Miltenyi Biotec, 130-050-301) according to the supplier recommendations. CD19+B cells are cultured and immortalized with EBV to generate autologous lymphoblastoid cell lines (LCL). Naïve CD4+ T cells are also purified from the CD14− PBMCs fraction by performing negative immunomagnetic separation with naïve CD4+ T cell isolation kit (Miltenyi Biotec, 130-094-131) according to the supplier recommendations. Naïve CD4+ T cells are co-cultured with autologous mDC or LCL in the presence of the peptides of table 1. The CD4+ T cells are re-stimulated periodically, about every 10-12 days, to generate peptide-specific cell lines.
The evaluation of the ability of the peptides of table 1 to generate peptide specific CD4+ T cells is evaluated by flow cytometry analysis of the TCR induced surface activation marker CD154 expression after overnight co-culture at resting state with autologous
(§2) LCL without (no peptide) or with the peptides of table 1. The expression of the lytic marker Granzyme B is also evaluated by flow cytometry analysis in the supernatant of overnight co-culture with autologous LCL without (no peptide) or with the peptides of table 1. Supernatants are analyzed with a BioLegend kit according to the supplier recommendations.

[3] = system: autologous LCL (lymphoblastoid cell lines) used as antigen presenting cells; experiment: Cytolytic activity: apoptosis of peptide-loaded autologous LCL co-cultured with peptide specific CD4+ T cells (Annexin V); format: cell-based, human
Description: as §1
The cytolytic activity of the peptide specific CD4+ T cells is evaluated by quantifying the apoptosis induced on LCL used as antigen presenting cells. Fluorescently labelled autologous LCL, loaded or not with the peptides, were overnight co-cultured at resting state with peptide specific CD4+ T cells, and LCL apoptosis was quantified by flow cytometry through Annexin V staining. Considering the apoptosis percentage of unloaded LCL, used as control, the percentage of specific apoptosis is calculated as follows: […]

[4] = system: peptide-specific CD4+ T cell lines of NMO patients; experiment: Lytic marker Granzyme B in supernatant of overnight co-culture with autologous LCL; format: cell-based, human
Description: as §1, §2

[5] = Oxidoreductase activity of the immunogenic peptides, fluorescent assay (Tomazzolli et al.); format: biochemical; conditions: for oxidoreductase activity: reduction of self-quenched FITC peptides, mean of duplicates, read in RFU (FIGS. 1A-1E); for time at which oxidoreductase activity reached a plateau: FIG. 1A
Description: The peptides of the invention comprise an MHC class II T-cell epitope or NKT cell epitope of AQP4 with a potential to trigger an immune reaction, and a modified oxidoreductase motif. The reducing activity of the motif sequence in the peptide can be assayed for its ability to reduce a sulfhydryl group such as in the insulin solubility assay wherein the solubility of insulin is altered upon reduction, or with a fluorescence-labelled substrate such as insulin. An example of such assay uses a fluorescent peptide and is described in Tomazzolli et al. (2006) Anal. Biochem. 350, 105-112. Two peptides with a FITC label become self-quenching when they covalently attached to each other via a disulfide bridge. Upon reduction by a peptide in accordance with the present invention, the reduced individual peptides become fluorescent again.
The oxidoreductase activity of the immunogenic peptides of table 1 was determined using a fluorescent assay described in Tomazzolli et al. (2006) Anal. Biochem. 350, 105-112. Two peptides with a FITC label become self-quenching when they form a covalent disulfide bond. Upon reduction by a peptide in accordance with the present invention, the reduced individual FITC labelled peptides emit fluorescence again. The activity is expressed as the mean of duplicates. The results are expressed in Relative Fluorescent Units (RFU).

[6] = system: peptide-specific CD4+ T cell lines of NMO patients; experiment: Cytokine secretion in CD4+ T cell culture supernatants (LEGENDplex Human Th Panel); format: cell-based
Description: as §1
The ability of the peptides of table 1 to induce cytokines secretion in CD4+ T cells culture supernatants is evaluated by flow cytometry analysis after overnight co-culture at resting state with autologous mDC or LCL without (no peptide) or with the peptides of table 1. Supernatants are analyzed with the LEGENDplex Human Th Panel (13-plex) (BioLegend, 740721) according to the supplier recommendations.

[7] = P20-specific CD4+ T cell line, patient NMO-001, after 14 stimulations (FIG. 6)
[8] = P20-specific CD4+ T cell lines NMO-001, NMO-003, NMO-006 (FIGS. 8 and 9)
[9] = P12-specific CD4+ T cell line, patient NMO-001 (FIG. 13)
[10] = P12-specific CD4+ T cell line NMO-001 (FIG. 14)
[11] = culture supernatant of P20-CD4+ cell line from patient NMO-006 (FIG. 5)

With KHCPYCVFTIFASCDSKRTDVK [P18] the “binding to HLA-DRB1*03:01” value [1] was “less affinity than P12 and P20”.
For “AGGLYEYVFSPDVEFKRRFK [short-S-WT epitope, reference compound]”, the “reactivation of P20-specific CD4+ T cells (CD154+)” value ([2]; P20-specific CD4+ T cells of NMO-001 patient (FIG. 4)) was “could also be reactivated”, the “percentage of specific LCL apoptosis” value [3, 7] was “increase in the percentage of specific LCL apoptosis” and the “effector cells expressing the lytic marker Granzyme B” value [4, 8] was “specific increase of effector cells expressing the lytic marker Granzyme B”.
In the case of “HCPYCVETIFASSDSKRTDVK (HCPYCVFTIFASSDSKRTDVK) [P15]”, the “binding to HLA-DRB1*03:01” value [1] is reported as “less affinity than P12 and P20” and the oxidoreductase activity [5] is reported as “displayed oxidoreductase activity, although to a lesser extend”.
For HCPYCTVAMVSTRKISIAK [P3], the “binding to HLA-DRB1*03:01” value [1] was “less affinity than P12 and P20”.
In the case of “KVAMVCTRKISIAKSVFYIAAKK [short-WT epitope, reference compound]”, the “reactivation of P12-specific CD4+ T cells (CD154+)” value ([2]; P12-specific CD4+ T cells of NMO-001 patient (FIG. 11)) is reported as “could also be reactivated”, the “percentage of specific LCL apoptosis” value [3, 9] is reported as “increase in the percentage of specific LCL apoptosis” and the “effector cells expressing the lytic marker Granzyme B” value [4, 10] is reported as “specific increase of effector cells expressing the lytic marker Granzyme B”.
For “AGGLYEYVFCPDVEFKRRFK [short C-WT T-cell epitope, reference compound]”, the “cross-reactivity (LCL apoptosis)” value ([3]; CD4+ T cells of patient NMO-001 after 16 stimulations with P20 (FIG. 7)) was “lower”, the “effector cells expressing the lytic marker Granzyme B” value [4, 8] was “specific increase of effector cells expressing the lytic marker Granzyme B” and the “specific secretion of cytokines (IL-5 and IL-13)” value (“specific secretion of cytokines” for short) [6, 11] was “specific secretion of cytokines (IL-5 and IL-13) induced”.
In the case of HCPYCRSQVETDDLILKPGVK [P22], the oxidoreductase activity [5] is reported as “displayed oxidoreductase activity, although to a lesser extend”.
For HCPYCEYVFSPDVEFKRRFK [P20], the “frequency of effector cells (CD3+CD4+CD154+)” value ([2]; P20-specific CD4+ T cell lines of NMO patients -001 and -003 after multiple stimulations (FIG. 3)) was “high frequency of effector cells”, the “percentage of specific LCL apoptosis” value [3, 7] was “increase in the percentage of specific LCL apoptosis” and the “apoptosis of loaded LCL” value ([3]; P20-specific CD4+ T cell line, patient NMO-003, after 14 stimulations (FIG. 6)) was “Apoptosis of LCL loaded with P20 was also observed”. For the same sequence, the LCL apoptosis ([3]; co-culture with CD4+ T cells of patient NMO-001 after 16 stimulations with P20 (FIG. 7)) was 50%, the “binding to HLA-DRB1*03:01” value [1] was “bind to HLA-DRB1*03:01 with similar affinity” and the “effector cells expressing the lytic marker Granzyme B” value [4, 8] was “specific increase of effector cells expressing the lytic marker Granzyme B”. For the same sequence, the “specific secretion of cytokines” value [6, 11] was “specific secretion of cytokines (IL-5 and IL-13) induced” and the “time at which oxidoreductase activity reached a plateau” value [5] was 5 min.
For HCPYCAVTVAMVCTRKISIAKK [P6], the “binding to HLA-DRB1*03:01” value [1] was “less affinity than P12 and P20”.
In the case of HCPYCTRKISIAKSVFYIAAKKK [P12], the “frequency of effector cells (CD3+CD4+CD154+)” value ([2]; P12-specific CD4+ T cell lines of NMO patients -001 and -003 after multiple stimulations (FIG. 10)) is reported as “high frequency of effector cells”, the “percentage of specific LCL apoptosis” value [3, 9] is reported as “increase in the percentage of specific LCL apoptosis” and the “binding to HLA-DRB1*03:01” value [1] is reported as “bind to HLA-DRB1*03:01 with similar affinity”. For the same sequence, the “effector cells expressing the lytic marker Granzyme B” value [4, 10] was “specific increase of effector cells expressing the lytic marker Granzyme B”, the “specific secretion of cytokines” value ([6]; culture supernatant of P12-specific CD4+ cell lines (FIG. 12, NMO-003)) was “specific secretion of cytokines (IL-5 and IL-13) induced” and the “time at which oxidoreductase activity reached a plateau” value [5] was 5 min.
For HCPYCRENIMVAFKGVWTQAK [P1], the “binding to HLA-DRB1*03:01” value [1] was “less affinity than P12 and P20”.
